Reference: patent US6967196B1, “Sulfonamide compounds and uses thereof” (Bristol-Myers Squibb Company, priority 1999, dated 2005)
Read-outs that look alike come from different tables or passages of the source.

Test system: amyloid β production in transfected H4 (human neuroglioma) cells stably expressing APP constructs
Test: In vitro cell-based assay of inhibitors of amyloid β production (ELISA)
Conditions: transfected H4 cells stably expressing APP constructs, approximately 16 hours incubation, amyloid β in medium by ELISA, read-out: ACTIVITY (IC50, inhibition of amyloid β production)
Outline: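 H4 neuroglioma cells stably expressing APP constructs were dosed in fresh medium, screened initially at 10-100 μM, and incubated ~16 h. Medium Aβ was measured by ELISA with C-terminal-epitope capture and N-terminal detection antibodies, quantified from a standard curve, with dose-response testing of actives.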

| Compound | IC50 | further results |
| --- | --- | --- |
| C[C@H](CCCNC(=O)[C@@H](O)c1ccccc1)N(c1cc(Cl)ccc1Cl)S(=O)(=O)c1ccc(Cl)cc1 [Example 1124] | 0.05 to 0.1 µM | – |
| CC(C)Oc1c(NCC[C@@H](C)N(c2cc(F)ccc2F)S(=O)(=O)c2ccc(Cl)cc2)c(=O)c1=O [Example 1125, 4-chloro-N-(2,5-difluorophenyl)-N-[3-(2-isopropoxy-3,4-dioxo-1-cyclobutenyl)amine-1(R)-methylpropyl]benzenesulfonamide] | 0.05 to 0.1 µM | – |
| C[C@H](CCCN1CCC(S(C)(=O)=O)CC1)N(c1cc(Cl)ccc1Cl)S(=O)(=O)c1ccc(Cl)cc1 [Example 1126, 4-chloro-N-(2,5-dichlorophenyl)-N-[4-[(4-methylsulfonyl)-1-piperidinyl]-1(R)-methylbutyl]benzenesulfonamide] | 0.05 to 0.1 µM | – |
| CC(C)Oc1c(NCC[C@@H](C)N(c2cc(Cl)ccc2F)S(=O)(=O)c2ccc(Cl)cc2)c(=O)c1=O [Example 1127, 4-chloro-N-(5-chloro-2-fluorophenyl)-N-[3-(2-isopropoxy-3,4-dioxo-1-cyclobutenyl)amine-1(R)-methylpropyl]benzenesulfonamide] | 0.05 to 0.1 µM | – |
| CC(C)Oc1c(NCCC[C@@H](C)N(c2cc(Cl)ccc2Cl)S(=O)(=O)c2ccc(Cl)cc2)c(=O)c1=O [Example 1128, 4-chloro-N-(2,5-dichlorophenyl)-N-[4-(2-isopropoxy-3,4-dioxo-1-cyclobutenyl)amine-1(R)-methylbutyl]benzenesulfonamide] | 0.05 to 0.1 µM | – |
| C[C@H](CCCNC(=O)[C@H](O)c1ccccc1)N(c1cc(Cl)ccc1Cl)S(=O)(=O)c1ccc(Cl)cc1 [Example 1129] | 0.05 to 0.1 µM | – |
| COC(=O)NCCC[C@@H](C)N(c1cc(Cl)ccc1Cl)S(=O)(=O)c1ccc(Cl)cc1 [Example 1131, 4-chloro-N-(2,5-dichlorophenyl)-N-[4-[[(methoxy)carbonyl]amino]-1-methylbutyl]benzenesulfonamide] | – | IC50 (Homo sapiens, 16 h): 0.05 to 0.1 µM |
| C[C@H](CCN1CCCC(S(C)(=O)=O)C1)N(c1cc(Cl)ccc1Cl)S(=O)(=O)c1ccc(Cl)cc1 (stereo partly drawn) [Example 1132, 4-chloro-N-(2,5-dichlorophenyl)-N-[3-[(3-methylsulfonyl)-1-piperidinyl]-1(R)-methylpropyl]benzenesulfonamide] | 0.05 to 0.1 µM | – |
| COC(=O)C1SCCN1CC[C@@H](C)N(c1cc(Cl)ccc1Cl)S(=O)(=O)c1ccc(Cl)cc1 (stereo partly drawn) [Example 1133, 4-chloro-N-(2,5-dichlorophenyl)-N-[3-(2-methoxycarbonyl-3-thiazolidinyl)-1(R)-methylpropyl]benzenesulfonamide] | 0.05 to 0.1 µM | – |
| CSC1CCN(CCC[C@@H](C)N(c2cc(Cl)ccc2Cl)S(=O)(=O)c2ccc(Cl)cc2)C1 (stereo partly drawn) [Example 1134, 4-chloro-N-(2,5-dichlorophenyl)-N-[4-[(3-methylthio)-1-pyrrolidinyl]-1(R)-methylbutyl]benzenesulfonamide] | 0.1 to 0.5 µM | – |
| C[C@H](CCCN(CCCn1ccnc1)CC1CC1)N(c1cc(Cl)ccc1Cl)S(=O)(=O)c1ccc(Cl)cc1 [Example 1135] | 0.1 to 0.5 µM | – |
| C[C@H](CCCN1CCCC(S(C)(=O)=O)C1)N(c1cc(Cl)ccc1Cl)S(=O)(=O)c1ccc(Cl)cc1 (stereo partly drawn) [Example 1136] | 0.1 to 0.5 µM | – |
| CC(CCCN=[N+]=[N-])N(c1cc(Cl)ccc1Cl)S(=O)(=O)c1ccc(Cl)cc1 (stereo not drawn) [Example 1138, 4-chloro-N-(2,5-dichlorophenyl)-N-[4-(azido)-1-methylbutyl]benzenesulfonamide] | – | IC50 (Homo sapiens, 16 h): 0.1 to 0.5 µM |
| CC(CC[C@@H](C)N(c1cc(Cl)ccc1Cl)S(=O)(=O)c1ccc(Cl)cc1)N1CCCC(S(C)(=O)=O)C1 (stereo partly drawn) [Example 1140] | 0.1 to 0.5 µM | – |
| CC(C)Oc1c(NCC[C@@H](C)N(c2cc(F)ccc2F)S(=O)(=O)c2ccc(Cl)cc2)c(=O)c1=O [Example 1141, 4-chloro-N-(2,5-difluorophenyl)-N-[3-(2-isopropoxy-3,4-dioxo-1-cyclobutenyl)amine-1(R)-methylpropyl]benzenesulfonamide] | 0.1 to 0.5 µM | – |
| CSC1CCCN(CC[C@@H](C)N(c2cc(Cl)ccc2Cl)S(=O)(=O)c2ccc(Cl)cc2)C1 (stereo partly drawn) [Example 1142, 4-chloro-N-(2,5-dichlorophenyl)-N-[3-[(3-methylthio)-1-piperidinyl]-1(R)-methylpropyl]benzenesulfonamide] | 0.1 to 0.5 µM | – |
| CSC1CCN(CCC[C@@H](C)N(c2cc(Cl)ccc2Cl)S(=O)(=O)c2ccc(Cl)cc2)C1 (stereo partly drawn) [Example 1144, 4-chloro-N-(2,5-dichlorophenyl)-N-[4-[(4-methylthio)-1-pyrrolidinyl]-1(R)-methylbutyl]benzenesulfonamide] | 0.1 to 0.5 µM | – |
| C[C@H](CCCNC(=O)OC(C)(C)C)N(c1cc(Cl)ccc1Cl)S(=O)(=O)c1ccc(Cl)cc1 [Example 1145, 4-chloro-N-(2,5-dichlorophenyl)-N-[4-[[(1,1-dimethylethoxy)carbonyl]amino]-1-methylbutyl]benzenesulfonamide] | – | IC50 (Homo sapiens, 16 h): 0.1 to 0.5 µM |

| Compound | IC50 | further results |
| --- | --- | --- |
| C[C@H](CCN1CCC(S(C)(=O)=O)CC1)N(c1cc(Cl)ccc1Cl)S(=O)(=O)c1ccc(Cl)cc1 [Example 1146, 4-chloro-N-(2,5-dichlorophenyl)-N-[3-[(4-methylsulfonyl)-1-piperidinyl]-1(R)-methylpropyl]benzenesulfonamide] | 0.1 to 0.5 µM | – |
| CSC1CCN(CC[C@@H](C)N(c2cc(Cl)ccc2Cl)S(=O)(=O)c2ccc(Cl)cc2)C1 (stereo partly drawn) [Example 1147, 4-chloro-N-(2,5-dichlorophenyl)-N-[3-[(3-methylthio)-1-pyrrolidinyl]-1(R)-methylpropyl]benzenesulfonamide] | 0.1 to 0.5 µM | – |
| CSC1CCN(CCC[C@@H](C)N(c2cc(Cl)ccc2Cl)S(=O)(=O)c2ccc(Cl)cc2)C1 (stereo partly drawn) [Example 1148] | 0.1 to 0.5 µM | – |
| C[C@H](CCCNC(=O)c1ccccc1)N(c1cc(Cl)ccc1Cl)S(=O)(=O)c1ccc(Cl)cc1 [Example 1149, 4-chloro-N-(2,5-dichlorophenyl)-N-[4-[[(phenyl)carbonyl]amino]-1-methylbutyl]benzenesulfonamide] | – | IC50 (Homo sapiens, 16 h): 0.1 to 0.5 µM |
| C[C@H](CCCCN1CCC(CS(C)(=O)=O)CC1)N(c1cc(Cl)ccc1Cl)S(=O)(=O)c1ccc(Cl)cc1 [Example 1150, 4-chloro-N-(2,5-dichlorophenyl)-N-[5-[[4-(methylsulfonyl)methyl]-1-piperidinyl]-1(R)-methylpentyl]benzenesulfonamide] | 0.1 to 0.5 µM | – |
| C[C@H](CCN1CCCC(CS(C)(=O)=O)C1)N(c1cc(Cl)ccc1Cl)S(=O)(=O)c1ccc(Cl)cc1 (stereo partly drawn) [Example 1151, 4-chloro-N-(2,5-dichlorophenyl)-N-[3-[(3-(methylsulfonyl)methyl]-1-piperidinyl]-1(R)-methylpropyl)benzenesulfonamide] | 0.1 to 0.5 µM | – |
| CC(CCCN)N(c1cc(Cl)ccc1Cl)S(=O)(=O)c1ccc(Cl)cc1 (stereo not drawn) [Example 1152] | 0.1 to 0.5 µM | – |
| CSC1CCCN(CCC[C@@H](C)N(c2cc(Cl)ccc2Cl)S(=O)(=O)c2ccc(Cl)cc2)C1 (stereo partly drawn) [Example 1153, 4-chloro-N-(2,5-dichlorophenyl)-N-[4-[(3-methylthio)-1-piperidinyl]-1(R)-methylbutyl]benzenesulfonamide] | 0.1 to 0.5 µM | – |
| C[C@H](CCCNC(=O)Oc1ccccc1)N(c1cc(Cl)ccc1Cl)S(=O)(=O)c1ccc(Cl)cc1 [Example 1154, 4-chloro-N-(2,5-dichlorophenyl)-N-[4-[[(phenoxy)carbonyl]amino]-1-methylbutyl]benzenesulfonamide] | – | IC50 (Homo sapiens): 0.1 to 0.5 µM |
| C[C@H](CCCNC(=O)OCc1ccccc1)N(c1cc(Cl)ccc1Cl)S(=O)(=O)c1ccc(Cl)cc1 [Example 1155, 4-chloro-N-(2,5-dichlorophenyl)-N-[4-[[(benzoxy)carbonyl]amino]-1-methylbutyl]benzenesulfonamide] | – | IC50 (Homo sapiens, 16 h): 0.1 to 0.5 µM |
| CSC1CCN(CC[C@@H](C)N(c2cc(Cl)ccc2Cl)S(=O)(=O)c2ccc(Cl)cc2)CC1 [Example 1156, 4-chloro-N-(2,5-dichlorophenyl)-N-[3-[(4-methylthio)-1-piperidinyl]-1(R)-methylpropyl]benzenesulfonamide] | 0.1 to 0.5 µM | – |
| C[C@H](CCCN1CCC(CS(C)(=O)=O)CC1)N(c1cc(Cl)ccc1Cl)S(=O)(=O)c1ccc(Cl)cc1 [Example 1157, 4-chloro-N-(2,5-dichlorophenyl)-N-[4-[[4-(methylsulfonyl)methyl]-1-piperidinyl]-1(R)-methylbutyl)benzenesulfonamide] | 0.1 to 0.5 µM | – |
| C[C@H](CCCN(c1cc(Cl)ccc1Cl)S(=O)(=O)c1ccc(Cl)cc1)N(c1cc(Cl)ccc1Cl)S(=O)(=O)c1ccc(Cl)cc1 [Example 1158, 4-chloro-N-(2,5-dichlorophenyl)-N-[4-[N-(2,5-dichlorophenyl)-N-[(4-chlorophenyl)sulfonyl]amino]-1(R)-methylbutyl]benzenesulfonamide] | – | IC50 (Homo sapiens, 16 h): > 0.5 µM |
| CSC1CCCN(CC[C@@H](C)N(c2cc(Cl)ccc2Cl)S(=O)(=O)c2ccc(Cl)cc2)C1 (stereo partly drawn) [Example 1159] | > 0.5 µM | – |
| CC[S+]([O-])CCC[C@@H](C)N(c1cc(Cl)ccc1F)S(=O)(=O)c1ccc(Cl)cc1 (stereo partly drawn) [Example 1160, 4-chloro-N-(5-chloro-2-fluorophenyl)-N-[1(R)-methyl-(4-ethylsulfinyl)butyl]benzenesulfonamide] | ≤ 0.025 µM | – |
| CC(C)S(=O)(=O)CCC[C@@H](C)N(c1cc(Cl)ccc1Cl)S(=O)(=O)c1ccc(Cl)cc1 [Example 1161] | ≤ 0.025 µM | – |
| C[C@H](CCCS(C)(=O)=O)N(c1cc(Cl)ccc1Cl)S(=O)(=O)c1ccc(Cl)cc1 [Example 1162, 4-chloro-N-[2,5-dichlorophenyl]-N-[1(R)-methyl-(4-methylsulfonyl]butyl]benzenesulfonamide] | ≤ 0.025 µM | – |
| CCS(=O)(=O)CCC[C@@H](C)N(c1cc(Cl)ccc1F)S(=O)(=O)c1ccc(Cl)cc1 [Example 1163, 4-chloro-N-[5-chloro-2-fluorophenyl]-N-[1(R)-methyl-(4-ethylsulfonyl)butyl]benzenesulfonamide] | ≤ 0.025 µM | – |
